From patent publication US20050261292A1, “Pharmaceutical composition containing N-sulfamoyl-N'-arylpiperazines for the treatment or inhibition of obesity and related conditions” (Solvay Pharmaceuticals GmbH, priority 2004, published 2005)
pIC50: −log10 of the molar value. Counter-ions that a name gives are not always drawn.

Target: T1, human carbonic anhydrase isoenzyme II (hCA II) (Homo sapiens, UniProt P00918)
T1 construct: human carbonic anhydrase isoenzyme II from erythrocytes (Sigma-Aldrich); purchased Sigma-Aldrich; host or cells: human erythrocytes (natural source)
Test: In vitro inhibition of human carbonic anhydrase isoenzyme II (hCA II), dansylamide fluorescence
Format: biochemical
Details: hCA II from erythrocytes 10^-7 M, 60 min, single measurements, read-out: hCA II inhibiting effect in vitro, IC50
Description: 1. In vitro Inhibition of Human Carbonic Anhydrase Isoenzyme II (hCA II)
The test compounds of Formula I in 96 well microplates were diluted with aqua bidest by using an automatic pipettor (CyBiWell®). From the different dilution plates, aliquots of 20 μl were transferred to the 96 well black assay plates with a pipetting station (Tecan Genesis®). In a second step, 148 μl of potassium phosphate buffer (20 mM, pH 7.4) was added, and as a third step, 20 μl of enzyme solution (1 μM human carbonic anhydrase isoenzyme II from erythrocytes (Sigma-Aldrich), dissolved in potassium phosphate buffer) incubated for 60 min at room temperature and the fluorescence signal (Tecan Ultra® fluorescence reader; excitation wavelength: 280 nm; emission wavelength: 465 nm) read at the end of the preincubation period (FLU-1). After the preincubation time, 20 μl of aqueous dansylamide solution (1 mM dansylamide (Sigma-Aldrich), dissolved in hydrochloric acid) were added and the fluorescence signal read every 10 min for a period of 60 min at 37° C. For calculation, the fluorescence data of the time point 60 min (FLU-2) were used. The total volume of assay mixture amounted to 208 μl. The final concentration of carbonic anhydrase II was 10^−7 M/L, of dansylamide 2.25×10^−6 and of compounds from 10^−8 M/L up to 10^−5 M/L. Final concentration of DMSO as compound solvent was […]. Each microplate also contained blanks without compound and enzyme, controls without compound and ethoxzolamide (final concentration 5×10^−8 M/L). All data reflect single measurements. Data were expressed as % inhibition after calculation by the formula: % inhibition=100((1−(FLU−2cpd−FLU−2blank−FLU−1cpd+FLU−1blank)/(FLU−2control−FLU−2blank−FLU−1control−FLU−1blank))
The % inhibition data for each compound and the respective final concentrations were used for IC50 calculations by using the Prism 4 software. Concentration action figures were calculated by applying the Prism algorithm for nonlinear regression (curve-fit): sigmoidal dose response with variable slope and the constraints: top: 100 and bottom 0.

## NS(=O)(=O)N1CCN(c2ccccc2)CC1 [Example 2, N-Sulfamoyl-N′-phenylpiperazine hydrochloride]
  pIC50: 5.29
